In brackets after ≈: the same amount, converted by molar mass. Read-outs that look alike come from different tables or passages of the source.
Experiments:
[1] = partition coefficient between organic fluid and water, from solubility ratio
Text: [formula] where m is the rate at which drug is transported across the membrane (g/sec), Vp is the volume of the permeate solution (cm^3), [D]p is the concentration of drug in the permeate solution (g/cm^3), t is the time (sec), am is the membrane area (cm^2), Pov is the overall permeability coefficient (cm/sec), [Ddissolved]f is the concentration of dissolved drug in the feed solution (g/cm^3), and kp,mem is the partition coefficient of drug between the organic fluid and water, which is defined as the ratio of (1) the concentration of drug in the organic fluid, and (2) the concentration of dissolved neutral drug in the aqueous feed solution when the two solutions are at equilibrium. The partition coefficient can be estimated from the ratio of (1) the solubility of drug in the organic fluid and (2) the solubility of the dissolved drug in the aqueous feed solution.
The organic fluid consisted of 4 mL of decanol, which was added to the permeate reservoir. […] An overhead stirrer was used to stir the decanol permeate solution at 100 rpm.
The organic fluid used in these tests consisted of 5 mL of 20 wt % decanol in decane.

[2] = not told, 120 μg/mL
[3] = membrane-permeation test, plasma-treated (hydrophilic feed side) membrane, PBS feed, decanol permeate; assay type: in vitro ADME
Procedure: A cold plasma was used to treat the feed side of a microporous membrane as follows. An Accurel® PP 1E microporous polypropylene membrane was obtained from Membrana GmbH (Wuppertal, Germany). This membrane has a nominal pore size of 0.1 μm, a thickness of about 92 μm, and a porosity of about 70%. The contact angle of a drop of water placed on the untreated membrane is greater than about 110°.
The membrane was rinsed five times in fresh isopropyl alcohol at room temperature for about 24 hours, for a total rinsing time of about 120 hours, and then allowed to air dry. Prior to treatment, the membrane was rinsed in methanol in a sonicating bath for 1 minute at ambient temperature, and then allowed to air dry at ambient temperature.
A sample of the membrane measuring about 10 cm by about 23 cm was placed into a glass-walled plasma chamber having an inside diameter of about 3 inches (7.5 cm). The membrane was positioned such that the permeate side of the membrane was against the glass wall of the plasma chamber. The atmosphere of the plasma chamber was saturated with water vapor at a pressure of 550 mtorr by placing a shallow tray of water into the chamber prior to reducing the pressure using a vacuum pump.
After achieving a constant pressure in the plasma chamber (about 3 to 5 minutes), the plasma was generated using radio frequency (RF) power inductively coupled into the chamber via annular electrodes. The power on the RF generator was set at 50 watts. The membrane was exposed to the plasma for 45 seconds, after which the power was turned off and the pressure in the chamber increased to ambient using air. The contact angle of a drop of water placed on the surface of the plasma-treated membrane was about 40°. The contact angle of a drop of water placed on the permeate side of the same membrane was greater than about 110°.
The crystalline form of the cholesteryl ester transfer protein (CETP) inhibitor [2R,4S]4-[(3,5-bis-trifluoromethyl-benzyl)-methoxycarbonyl-amino]-2-ethyl-6-trifluoromethyl-3,4-dihydro-2H-quinoline-1-carboxylic acid ethyl ester, also known as torcetrapib (“Drug 1”) was evaluated in a membrane-permeation test. An apparatus similar to the one shown schematically in FIG. 3 was assembled as follows. A permeate reservoir was formed by gluing a sample of the plasma-treated membrane described above to a glass tube having an inside diameter of about 1 inch (2.54 cm) using an epoxy-based glue (LOCTITE® E-30CL HYSOL® from Henkel Loctite Corp, Rocky Hill, Conn.). The feed-side of the membrane was oriented so that it was on the outside of the permeate reservoir, while the permeate-side of the membrane was oriented so that it was on the inside of the reservoir. The glue was allowed to set by placing the permeate reservoir in an oven at 50° C. and 25% relative humidity (RH) overnight. The contact angle of a drop of water on the feed side of the membrane after assembling the permeate reservoir was about 50°. The effective membrane area of the permeate reservoir was about 4.9 cm^2.
[…] […] This is well in excess of the solubility of Drug 1 in water, estimated to be less than about 0.04 μg/mL. The feed solution was mixed on a vortex mixer for about 1 minute.
The apparatus was assembled by first filling the permeate reservoir with the permeate solution. The permeate reservoir, with attached membrane, was placed within a glass feed reservoir about 3.3 cm in diameter such that the membrane was held about 1 cm above the bottom of the feed reservoir, and the membrane was wetted by the permeate solution. The feed reservoir was equipped with a magnetic stir bar and the reservoir was placed on a stir plate and adjusted to a stir rate of 600 rpm. Care was taken to ensure no air bubbles were trapped beneath the feed side of the membrane. Time 0 was taken as the time the permeate reservoir was placed within the feed solution reservoir such that the feed solution contacted the membrane surface. […]

[4] = membrane-permeation test with un-treated (hydrophobic) microporous membrane; assay type: in vitro ADME
Procedure: A series of tests were performed using the procedure outlined in Example 1 except that an un-treated ACCUREL® PP 1E microporous polypropylene membrane was utilized in the test apparatus. The contact angle of a drop of water on the feed side of the membrane was greater than about 100°, and thus was hydrophobic. The flux of Drug 1 across the membrane was determined using the procedures outlined in Example 1 as a function of the amount of Drug 1 added to the feed solution. […] Without wishing to be bound by any particular theory or mechanism of action, it is believed that without the hydrophilic surface, particles of crystalline drug contacted the permeate solution (decanol) directly and dissolved into the decanol permeate solution, resulting in high maximum fluxes of Drug 1 across the membrane.

[5] = in vivo oral dosing of OPC, plasma concentration; details: dog, beagle dogs, Fed
Procedure: The compositions tested in vitro in Examples 3-6 were tested in vivo to determine whether the in vitro results correlate with the in vivo results. For Examples 7 and 8, the composition was the same as that used in Example 3 (25% Drug 1:HPMCAS-M dispersion) dosed in the fasted state, and fed state, respectively. For Examples 9 and 10, the composition was the same as that used in Example 4 (crystalline Drug 1) dosed in the fasted state and fed state, respectively.
The compositions were orally dosed to beagle dogs in the form of an oral powder for constitution (OPC) by suspending the composition in about 15 mL of a solution of 3 wt % polyethylene glycol (PEG) with a molecular weight of 3,350 daltons, 0.5 wt % methylcellulose, and 0.15 wt % Polysorbate 80 in sterile water. In each case a sufficient amount of the pharmaceutical composition was used such that the OPC contained 90 mgA of Drug 1. The thus-formed OPCs were then dosed to dogs in either the fed state or fasted state (fasted overnight). Blood was collected from the jugular vein of the dogs before dosing and at various time points after dosing. To 100 μL of each plasma sample, 5 mL of methyl-tert-butyl ether (MTBE) and 1 mL of 500 mM sodium carbonate buffer (pH 9) were added; the sample was vortexed for 1 minute and then centrifuged for 5 minutes. The aqueous portion of the sample was frozen in a dry-ice/acetone bath, and the MTBE layer was decanted and evaporated in a vortex evaporator. Dried samples were reconstituted in 100 μL of mobile phase (33% acetonitrile and 67% of 0.1% formic acid in water). Analysis was carried out by HPLC.
The results of these tests are shown in Table 7, where Cmax,24 is the maximum concentration in the blood plasma during the first 24 hours, Tmax is the time to achieve the maximum concentration in the blood plasma and AUC0-24 is the concentration in the blood plasma area under the curve in the first 24 hours.

[6] = organic solvent or mixture, solubility in organic fluid
[7] = water, aqueous solubility (solubility in water)

Compound: CC[C@@H]1C[C@H](N(Cc2cc(C(F)(F)F)cc(C(F)(F)F)c2)C(C)=O)c2cc(C(F)(F)F)ccc2N1C(=O)OC(C)C [Drug 3, [2R,4S]4-[acetyl-(3,5-bis-trifluoromethyl-benzyl)-amino]-2-ethyl-6-trifluoromethyl-3,4-dihydro-2H-quinoline-1-carboxylic acid isopropyl ester]
- partition coefficient between the organic fluid and water ([1]; 20 wt % decanol in decane / water): greater than 250,000
- Maximum Flux of Drug 3 [2]: 0.06 μg/cm^2-min
- solubility (physchem; [6]): > 25 mg/mL
- solubility (physchem; [7]): < 0.0001 mg/mL

Compound: CCOC(=O)N1c2ccc(C(F)(F)F)cc2[C@@H](N(Cc2cc(C(F)(F)F)cc(C(F)(F)F)c2)C(=O)OC)C[C@H]1CC [Drug 1, [2R,4S]4-[(3,5-bis-trifluoromethyl-benzyl)-methoxycarbonyl-amino]-2-ethyl-6-trifluoromethyl-3,4-dihydro-2H-quinoline-1-carboxylic acid ethyl ester]
- Maximum Flux of Drug 1 ([3]; 89 μg/mL added to PBS feed, 80 to 160 minutes): 0.025 μg/cm^2-min
- Maximum Flux of Drug 1 ([3]; 1000 μg/mL added to PBS feed, 90 to 210 minutes): 0.028 μg/cm^2-min
- slope of permeate concentration versus time (least-squares fit) ([3]; 90 to 210 minutes, 1000 μg/mL added to PBS feed): 0.035 μg/mL-min
- Drug 1 Concentration in Permeate ([3]; time 0 min, 89 μg/mL added to PBS feed): 0.0 µg/mL
- Drug 1 Concentration in Permeate ([3]; time 0 min, 1000 μg/mL added to PBS feed, 37° C., average of duplicate tests): 0.0 µg/mL
- Drug 1 Concentration in Permeate ([3]; time 20 min, 89 μg/mL added to PBS feed): 0.0 µg/mL
- Drug 1 Concentration in Permeate ([3]; time 30 min, 1000 μg/mL added to PBS feed): 0.0 µg/mL
- Drug 1 Concentration in Permeate ([3]; time 40 min, 89 μg/mL added to PBS feed): 0.0 µg/mL
- Drug 1 Concentration in Permeate ([3]; time 60 min, 89 μg/mL added to PBS feed): 0.0 µg/mL
- Drug 1 Concentration in Permeate ([3]; time 60 min, 1000 μg/mL added to PBS feed): 0.0 µg/mL
- Drug 1 Concentration in Permeate ([3]; time 80 min, 89 μg/mL added to PBS feed): 1.7 µg/mL
- Drug 1 Concentration in Permeate ([3]; time 90 min, 1000 μg/mL added to PBS feed): 3.3 µg/mL
- Drug 1 Concentration in Permeate ([3]; time 100 min, 89 μg/mL added to PBS feed): 2.2 µg/mL
- Drug 1 Concentration in Permeate ([3]; time 120 min, 89 μg/mL added to PBS feed): 3.0 µg/mL
- Drug 1 Concentration in Permeate ([3]; time 120 min, 1000 μg/mL added to PBS feed): 4.5 µg/mL
- Drug 1 Concentration in Permeate ([3]; time 140 min, 89 μg/mL added to PBS feed): 3.7 µg/mL
- Drug 1 Concentration in Permeate ([3]; time 150 min, 1000 μg/mL added to PBS feed): 6.9 µg/mL
- Drug 1 Concentration in Permeate ([3]; time 160 min, 89 μg/mL added to PBS feed): 4.0 µg/mL
- Drug 1 Concentration in Permeate ([3]; time 210 min, 1000 μg/mL added to PBS feed): 7.4 µg/mL
- Drug 1 Concentration in Permeate ([3]; time 240 min, 1000 μg/mL added to PBS feed): 9.2 µg/mL
- Drug 1 Concentration in Permeate ([3]; time 270 min, 1000 μg/mL added to PBS feed): 11.8 µg/mL
- Drug 1 Concentration in Permeate ([3]; time 300 min, 1000 μg/mL added to PBS feed): 12.2 µg/mL
- Drug 1 Concentration in Permeate ([3]; time 330 min, 1000 μg/mL added to PBS feed): 14.9 µg/mL
- Drug 1 Concentration in Permeate ([3]; time 360 min, 1000 μg/mL added to PBS feed): 13.9 µg/mL
- Drug 1 Concentration in Permeate ([3]; time 390 min, 1000 μg/mL added to PBS feed): 16.9 µg/mL
- Drug 1 Concentration in Permeate ([3]; time 420 min, 1000 μg/mL added to PBS feed): 21.4 µg/mL
- Drug 1 Concentration in Permeate ([3]; time 450 min, 1000 μg/mL added to PBS feed): 21.5 µg/mL
- Maximum Flux of Drug ([4]; 25 μg/mL Drug 1 added to the feed): 0.75 μg/cm^2-min
- Maximum Flux of Drug ([4]; 50 μg/mL Drug 1 added to the feed): 1.5 μg/cm^2-min
- Maximum Flux of Drug ([4]; 80 μg/mL Drug 1 added to the feed): 4.0 μg/cm^2-min
- Maximum Flux of Drug ([4]; 200 μg/mL Drug 1 added to the feed): 7.1 μg/cm^2-min
- Maximum Flux of Drug ([4]; 400 μg/mL Drug 1 added to the feed): 12.6 μg/cm^2-min
- Maximum Flux of Drug ([4]; 700 μg/mL Drug 1 added to the feed): 26 μg/cm^2-min
- Maximum Flux of Drug ([4]; 1000 μg/mL Drug 1 added to the feed): 32 μg/cm^2-min
- Tmax ([5]; oral OPC 90 mgA Drug 1): 2.3 ± 1.9 h
- AUC(0-t) ([5]; oral OPC 90 mgA Drug 1, read-out: AUC0-24): 928 ± 642 µg·h/mL
- Cmax ([5]; oral OPC 90 mgA Drug 1, read-out: Cmax,24): 191 ± 55 µg/mL
- partition coefficient between the organic fluid and water [1]: greater than 650,000
- partition coefficient of the drug between the organic fluid and PBS [1]: greater than 650,000
- Maximum Flux of Drug 1 [2]: 0.012 μg/cm^2-min
- maximum flux in solution modeling the fed state relative to MFD solution [2]: 7,6 fold
- solubility (physchem; aqueous buffer, aqueous solubility in PBS): < 4e-05 mg/mL
- solubility (physchem; organic solvent or mixture, solubility in decanol): > 25 mg/mL
- solubility (physchem; [6]): ~25 mg/mL (≈ 41.6 mM)
- solubility (physchem; [7]): < 4e-05 mg/mL

Compound: O=C(N[C@@H](Cc1ccccc1)[C@@H](O)C(=O)N1C[C@@H](O)[C@@H](O)C1)c1cc2cc(Cl)ccc2[nH]1 [Drug 2, 5-chloro-1H-indole-2-carboxylic acid [(1S)-benzyl-(2R)-hydroxy-3-((3R,4S)-dihydroxy-pyrrolidin-1-yl-)-3-oxypropyl]amide]
- partition coefficient between the organic fluid and water [1]: about 12
